These are literature values, as cited in patent publication US20070237815A1 (priority 2006, published 2007).

For this series the following is noted: in the elderly.

Structures are written as SMILES.

As for `NS(=O)(=O)c1cc(C2(O)NC(=O)c3ccccc32)ccc1Cl` (stereo not shown) [chlorthalidone], the half-life result is recorded as “approximately 72 hours”.
